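Interpolation was linear, between the two tested concentrations surrounding the appropriate level; five concentrations were tested over 48 hours in 96-well plates. TGI is the concentration that stops growth completely.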
Columns and labels:
Assay in all cases: NCI tumour cell line growth inhibition, 48 h
HCT-15 colon = tested on: HCT-15 colon
SN12C renal = tested on: SN12C renal
DMS 114 small cell lung = tested on: DMS 114 small cell lung
MOLT-4 leukemia = tested on: MOLT-4 leukemia
HL-60(TB) leukemia = tested on: HL-60(TB) leukemia
EKVX NSCLC = tested on: EKVX NSCLC
SK-MEL-28 melanoma = tested on: SK-MEL-28 melanoma
ACHN renal = tested on: ACHN renal
TK-10 renal = tested on: TK-10 renal
OVCAR-5 ovarian = tested on: OVCAR-5 ovarian
A549 NSCLC = tested on: A549 NSCLC
M19-MEL melanoma = tested on: M19-MEL melanoma
COLO 205 colon = tested on: COLO 205 colon
OVCAR-8 ovarian = tested on: OVCAR-8 ovarian
SR leukemia = tested on: SR leukemia
SK-OV-3 ovarian = tested on: SK-OV-3 ovarian
NCI-H460 lung = tested on: NCI-H460 lung
NCI-H23 lung = tested on: NCI-H23 lung
LOX IMVI melanoma = tested on: LOX IMVI melanoma
IGROV1 ovarian = tested on: IGROV1 ovarian
HCC-2998 colon = tested on: HCC-2998 colon
CCRF-CEM leukemia = tested on: CCRF-CEM leukemia
SF-268 CNS = tested on: SF-268 CNS
K-562 leukemia = tested on: K-562 leukemia
U251 CNS = tested on: U251 CNS
SNB-75 CNS = tested on: SNB-75 CNS
786-0 renal = tested on: 786-0 renal
SW-620 colon = tested on: SW-620 colon
RXF 393 renal = tested on: RXF 393 renal
KM20L2 colon = tested on: KM20L2 colon
SF-539 CNS = tested on: SF-539 CNS
RPMI-8226 leukemia = tested on: RPMI-8226 leukemia
UACC-62 melanoma = tested on: UACC-62 melanoma
DMS 273 small cell lung = tested on: DMS 273 small cell lung
LXFL 529 NSCLC = tested on: LXFL 529 NSCLC
UACC-257 melanoma = tested on: UACC-257 melanoma
NCI-H226 lung = tested on: NCI-H226 lung
SNB-78 CNS = tested on: SNB-78 CNS
M14 melanoma = tested on: M14 melanoma
SK-MEL-5 melanoma = tested on: SK-MEL-5 melanoma
UO-31 renal = tested on: UO-31 renal
HOP-62 NSCLC = tested on: HOP-62 NSCLC
HCT-116 colon = tested on: HCT-116 colon
HT29 colon = tested on: HT29 colon
XF 498 CNS = tested on: XF 498 CNS
SNB-19 CNS = tested on: SNB-19 CNS
DLD-1 colon = tested on: DLD-1 colon
OVCAR-4 ovarian = tested on: OVCAR-4 ovarian
OVCAR-3 ovarian = tested on: OVCAR-3 ovarian
CAKI-1 renal = tested on: CAKI-1 renal
SF-295 CNS = tested on: SF-295 CNS
KM12 colon = tested on: KM12 colon
SK-MEL-2 melanoma = tested on: SK-MEL-2 melanoma
MALME-3M melanoma = tested on: MALME-3M melanoma
NCI-H522 lung = tested on: NCI-H522 lung
HOP-92 NSCLC = tested on: HOP-92 NSCLC
T-47D breast = tested on: T-47D breast
MDA-MB-231 breast = tested on: MDA-MB-231 breast
MDA-MB-435 = tested on: MDA-MB-435
PC-3 prostate = tested on: PC-3 prostate
BT-549 breast = tested on: BT-549 breast
MDA-N = tested on: MDA-N
DU-145 prostate = tested on: DU-145 prostate
HS 578T breast = tested on: HS 578T breast
NCI/ADR-RES ovarian = tested on: NCI/ADR-RES ovarian
A498 renal = tested on: A498 renal
MCF7 breast = tested on: MCF7 breast
HOP-18 NSCLC = tested on: HOP-18 NSCLC

Measured: TGI

CCO[C@]12C[C@H](OC)[C@@]3(O)CC(C1[C@H]3OCc1ccccc1)C13C4C2[C@H](OC)C1[C@](COC)(CN4CC)[C@H](O)C[C@@H]3OC (stereo not given in full)
not listed: OVCAR-3 ovarian | CAKI-1 renal | SF-295 CNS | KM12 colon | SK-MEL-2 melanoma | MALME-3M melanoma | NCI-H522 lung | HOP-92 NSCLC | T-47D breast | MDA-MB-231 breast | MDA-MB-435 | PC-3 prostate | BT-549 breast | MDA-N | DU-145 prostate | HS 578T breast | NCI/ADR-RES ovarian | A498 renal | MCF7 breast | HOP-18 NSCLC
> 100 µM: all other assays above

COc1ccc(N=c2ssc3c(=S)ssc23)cc1
54.5 µM: DLD-1 colon
74.4 µM: DMS 273 small cell lung
75.6 µM: SNB-75 CNS
28.2 µM: HL-60(TB) leukemia | CCRF-CEM leukemia
57.1 µM: SK-MEL-5 melanoma
61.8 µM: UACC-62 melanoma
70.3 µM: HOP-92 NSCLC
96.7 µM: U251 CNS
20.1 µM: SR leukemia
26.9 µM: MOLT-4 leukemia
48.6 µM: M14 melanoma
38.3 µM: RPMI-8226 leukemia
35.8 µM: SW-620 colon
35.5 µM: NCI-H522 lung
26 µM: DMS 114 small cell lung
61.7 µM: OVCAR-3 ovarian
31.9 µM: LXFL 529 NSCLC
> 100 µM: SN12C renal | ACHN renal | TK-10 renal | OVCAR-5 ovarian | A549 NSCLC | M19-MEL melanoma | CAKI-1 renal | SK-OV-3 ovarian | SF-295 CNS | NCI-H23 lung | KM12 colon | HCC-2998 colon | SF-268 CNS | 786-0 renal | SK-MEL-2 melanoma | MALME-3M melanoma | NCI-H226 lung | HOP-62 NSCLC | HCT-116 colon | OVCAR-4 ovarian
38.7 µM: RXF 393 renal
96.2 µM: SF-539 CNS
22.5 µM: K-562 leukemia
52.5 µM: HCT-15 colon
99.4 µM: SNB-78 CNS
43.9 µM: OVCAR-8 ovarian
55.6 µM: SK-MEL-28 melanoma
26.3 µM: IGROV1 ovarian
34.1 µM: LOX IMVI melanoma

O=C(CN1CCNCCN(CC(=O)N2CCCCC2)CCNCC1)N1CCCCC1
69.4 µM: HL-60(TB) leukemia
not listed: DMS 114 small cell lung | M19-MEL melanoma | NCI-H23 lung | HCC-2998 colon | SF-268 CNS | RXF 393 renal | KM20L2 colon | DMS 273 small cell lung | LXFL 529 NSCLC | SNB-78 CNS | XF 498 CNS | DLD-1 colon | HOP-18 NSCLC
> 100 µM: all other assays above

CCOC(=O)C1=C(O)C(=O)c2ccsc2C1=O
40.5 µM: M19-MEL melanoma
not listed: LXFL 529 NSCLC | XF 498 CNS | T-47D breast | MDA-MB-231 breast | MDA-MB-435 | PC-3 prostate | BT-549 breast | MDA-N | DU-145 prostate | HS 578T breast | NCI/ADR-RES ovarian | MCF7 breast
> 100 µM: all other assays above

c1ccc2c(C3NCCc4[nH]cnc43)cccc2c1 (stereo not given)
not listed: HL-60(TB) leukemia | EKVX NSCLC | XF 498 CNS | SNB-19 CNS | MALME-3M melanoma | T-47D breast | MDA-MB-231 breast | MDA-MB-435 | PC-3 prostate | BT-549 breast | MDA-N | DU-145 prostate | HS 578T breast | NCI/ADR-RES ovarian | MCF7 breast
> 100 µM: all other assays above

CCCN(C(=O)c1c(Cl)nnc(Cl)c1C(=O)c1cc(Cl)nnc1Cl)c1cc(Cl)nnc1Cl
43.4 µM: HT29 colon
26.1 µM: SN12C renal
20.3 µM: SR leukemia | NCI-H23 lung
21.2 µM: IGROV1 ovarian
25.5 µM: ACHN renal | SW-620 colon
18.6 µM: COLO 205 colon
8.49 µM: RXF 393 renal
24.9 µM: UACC-62 melanoma
7.16 µM: HL-60(TB) leukemia
14.9 µM: HS 578T breast
42.3 µM: SF-295 CNS
26.4 µM: KM12 colon
40.8 µM: M14 melanoma
28.1 µM: SK-MEL-28 melanoma
20.2 µM: SF-268 CNS
19.6 µM: HCT-116 colon
26.6 µM: OVCAR-3 ovarian
42.1 µM: UACC-257 melanoma
87.7 µM: SNB-19 CNS
32.2 µM: TK-10 renal
40 µM: SF-539 CNS
22.2 µM: PC-3 prostate
27.6 µM: DU-145 prostate
69.1 µM: NCI/ADR-RES ovarian
33.2 µM: UO-31 renal
33.1 µM: A498 renal
34.3 µM: MDA-MB-231 breast
16.8 µM: MCF7 breast
41.2 µM: OVCAR-5 ovarian
13.3 µM: NCI-H522 lung
23 µM: T-47D breast
12.5 µM: MOLT-4 leukemia
27.3 µM: EKVX NSCLC
17.1 µM: RPMI-8226 leukemia
27.4 µM: K-562 leukemia
32.3 µM: HCC-2998 colon
48.8 µM: HOP-62 NSCLC
33.3 µM: U251 CNS | SK-MEL-2 melanoma
38.1 µM: OVCAR-4 ovarian
22.3 µM: CAKI-1 renal
10.6 µM: CCRF-CEM leukemia
57.3 µM: NCI-H226 lung
32.9 µM: BT-549 breast
21 µM: 786-0 renal
32.5 µM: SNB-75 CNS
36.9 µM: HOP-92 NSCLC
18.5 µM: HCT-15 colon | LOX IMVI melanoma
21.4 µM: SK-MEL-5 melanoma
70.4 µM: NCI-H460 lung
> 100 µM: A549 NSCLC | SK-OV-3 ovarian
5.78 µM: OVCAR-8 ovarian
30 µM: MDA-N
37 µM: MDA-MB-435

CCCCCC/C=C\CCCCCCCCCc1cccc(O)c1C(=O)O
95.8 µM: SK-MEL-2 melanoma
not listed: DMS 114 small cell lung | M19-MEL melanoma | LOX IMVI melanoma | KM20L2 colon | DMS 273 small cell lung | LXFL 529 NSCLC | SNB-78 CNS | XF 498 CNS | DLD-1 colon | HOP-18 NSCLC
> 100 µM: all other assays above

Source: PubChem BioAssay (NCI)
